The source of these data is paper PMC11203978, “Discovery of Di(het)arylmethane and Dibenzoxanthene Derivatives as Potential Anticancer Agents” (International Journal of Molecular Sciences, 2024).

One series concerns Hep-2. Put plainly: MTT cytotoxicity, Hep-2. The format is cell-based. The following applies: Homo sapiens, read-out: IC50 (µM) Cancer Cell Lines Hep-2. The text has this:
(§1) Cells and Materials. For the experiments, we used tumor cell cultures M-HeLa clone 11 (epithelioid carcinoma of the cervix, subline HeLa, clone M-HeLa), HuTu 80, human duodenal adenocarcinoma, Hep-2, human epithelial cells, SH-SY5Y, human neuroblast-like cells, A549, human lung adenocarcinoma, PA-1, human ovarian teratocarcinoma and MCF-7, a human mammary ductal adenocarcinoma from the collection of the Institute of Cytology, Russian Academy of Sciences (St. Petersburg, Russia); human liver cells (Chang liver) were from the collection and the Research Institute of Virology of the Russian Academy of Medical Sciences (Moscow, Russia).
(§2) MTT Assay. The cytotoxic effect on cells was determined using the colorimetric method of cell proliferation—the MTT test. NADP-H-dependent cellular oxidoreductase enzymes can, under certain conditions, reflect the number of viable cells. These enzymes reduce the tetrazolium dye (MTT) 3-(4,5-dimethylthiazol-2-yl)-2,5-diphenyl-tetrazolium bromide to insoluble blue-violet formazan, which crystallizes inside the cell. The amount of formed formazan is proportional to the number of cells with active metabolism. […] Optical density was recorded at 540 nm on an Invitrologic microplate reader (Novosibirsk, Russia). […]
(§3) Statistical analysis. The IC50 values were calculated using the MLA–Quest Graph™ IC50 Calculator (AAT Bioquest, Inc., Sunnyvale, CA, USA), 14 February 2022. […]

Series [1] concerns HuTu 80 cells. As to the kind of experiment: Induction of apoptosis, flow cytometry (annexin V-Alexa Fluor 647 / propidium iodide). It counts as cell-based, human. The following applies: IC50/2 and IC50, 24 h. The protocol:
The ability of the new compounds, proposed as antitumor agents, to induce cell death via apoptosis is a critical feature for their potential use in therapy. The apoptosis-inducing effects of lead compounds were investigated using flow cytometry at IC50/2 and IC50 concentrations on the HuTu 80 cell line (Figure 6A).
(§4) Cell Culture. HuTu 80 cells at 1 × 10^6 cells/well in a final volume of 2 mL were seeded into six-well plates. After 48 h of incubation, various concentrations of lead compounds were added to wells.
Cell Apoptosis Analysis. The cells were harvested at 2000 rpm for 5 min and were then washed twice with ice-cold PBS, and resuspended in binding buffer. Next, the samples were incubated with 5 μL of annexin V-Alexa Fluor 647 (Sigma-Aldrich, St Louis, MO, USA) and 5 μL of propidium iodide for 15 min at room temperature in the dark. Finally, the cells were analyzed using flow cytometry (Guava easy Cyte, MERCK, Rahway, NJ, USA) within 1 h. The experiments were repeated three times.
A general note: In flow cytometry, cells or beads pass a laser one at a time.

A further series relates to Chang Liver. Put plainly: MTT cytotoxicity, normal Chang liver cells. It counts as cell-based, human. To be noted: Homo sapiens, Chang liver, 48 h incubation, read-out: IC50 (µM) Normal Cell Line Chang Liver.
Description: as §1
(§5) MTT Assay. The cytotoxic effect on cells was determined using the colorimetric method of cell proliferation—the MTT test. NADP-H-dependent cellular oxidoreductase enzymes can, under certain conditions, reflect the number of viable cells. These enzymes reduce the tetrazolium dye (MTT) 3-(4,5-dimethylthiazol-2-yl)-2,5-diphenyl-tetrazolium bromide to insoluble blue-violet formazan, which crystallizes inside the cell. The amount of formed formazan is proportional to the number of cells with active metabolism. Cells were seeded on a 96-well Nunc plate at a concentration of 5 × 10^3 cells per well in a volume of 100 μL of medium and cultured in a CO2 incubator at 37 °C until a monolayer was formed. After the nutrient medium was removed, 100 µL of the test drug solutions at the given dilutions were added to the wells, which were prepared directly in the nutrient medium with the addition of 5% DMSO to improve solubility. After 48 h of incubation of the cells with the tested compounds, the nutrient medium was removed from the plates and 100 µL of the nutrient medium without serum with MTT at a concentration of 0.5 mg/mL was added and incubated for 4 h at 37 °C. Formazan crystals were added 100 µL of DMSO to each well. Optical density was recorded at 540 nm on an Invitrologic microplate reader (Novosibirsk, Russia). The experiments for all compounds were repeated three times.
(§6) Statistical analysis. The IC50 values were calculated using the MLA–Quest Graph™ IC50 Calculator (AAT Bioquest, Inc., Sunnyvale, CA, USA), 14 February 2022. Statistical analysis was performed with the Mann–Whitney test (p < 0.05). Tabular and graphical data contain averages and standard error.

The test system of the next series is PA-1. As to the kind of experiment: MTT cytotoxicity, PA-1. It counts as cell-based. To be noted: Homo sapiens, read-out: IC50 (µM) Cancer Cell Lines PA-1.
Description: as §1, §2, §3

The test system of another series is A549. As to the kind of experiment: MTT cytotoxicity, A549. To be noted: Homo sapiens, read-out: IC50 (µM) Cancer Cell Lines A549. It counts as cell-based.
Description: as §1, §2, §3

The next series has as its system HuTu 80. As to the kind of experiment: MTT cytotoxicity, HuTu 80. The following applies: for IC50: MTT, 48 h incubation, read-out: IC50 (µM) Cancer Cell Lines HuTu 80. The format is cell-based, human.
Description: as §1, §5, §6

In series [2] the test system is HuTu 80 cells. Put plainly: Intracellular ROS, CellROX Deep Red flow cytometry. It counts as cell-based, human. The following applies: IC50/2 and IC50. The protocol:
The apoptosis via the mitochondrial pathway also increases the production of reactive oxygen species (ROS). As mitochondria itself becomes the target of ROS, an increase in their production disrupts mitochondrial functions and culminates in irreversible cell damage. Therefore, the effect of lead compounds 6a and 5a at IC50/2 and IC50 concentrations on ROS production in HuTu 80 cells was evaluated using flow cytometry. […] Such an effect is not observed for intact cells in the presence of both compounds, indicating an increase in ROS production in cancer tissues.
Detection of Intracellular ROS. HuTU 80 cells were incubated with lead compounds at concentrations of IC50/2 and IC50 for 48 h. ROS generation was investigated using flow cytometry assay and CellROX® Deep Red flow cytometry kit. For this purpose, […] cells were harvested at 2000 rpm for 5 min and then washed twice with ice-cold PBS, followed by resuspension in 0.1 mL of medium without FBS, to which was added 0.2 μL of CellROX® Deep Red, which was followed by incubation at 37 °C for 30 min. The cells were washed three times and suspended in PBS. After that, the production of ROS in the cells was immediately monitored using flow cytometer (Guava easy Cyte, MERCK, Rahway, NJ, USA).

Another series relates to MCF-7. As to the kind of experiment: MTT cytotoxicity, MCF-7. The format is cell-based. The following applies: Homo sapiens, MCF7, read-out: IC50 (µM) Cancer Cell Lines MCF-7.
Description: as §1, §2, §3

Another series relates to M-HeLa. As to the kind of experiment: MTT cytotoxicity, M-HeLa. The format is cell-based, human. To be noted: Homo sapiens, M-HeLa; MTT, 48 h incubation; read-out: IC50 (µM) Cancer Cell Lines M-HeLa.
Description: as §1, §5, §6

Series [3] has as its system HuTu 80 cells. As to the kind of experiment: Mitochondrial membrane potential, JC-10 flow cytometry. The format is cell-based, human. The following applies: 24 h treatment, IC50/2 and IC50. The protocol: In this study, we used the fluorescent dye JC-10 from the Mitochondria Membrane Potential Kit (Sigma, St. Louis, MO, USA). Changes in mitochondrial membrane potential under the influence of lead compounds 5a and 6a were determined at IC50/2 and IC50 concentrations on the HuTu 80 cell line. When JC-10 accumulates in the mitochondrial matrix, it forms fluorescent J-aggregates. Their red fluorescence is characteristic for normal cells with high mitochondrial membrane potential. The reduction in mitochondrial membrane potential in apoptotic cells allows JC-10 to escape out of the mitochondria in a monomeric form which has green fluorescence. The mitochondrial membrane potential of HuTu 80 cells is decreased after 24 h treatment with the lead compounds 5a and 6a. The change becomes more pronounced as the concentrations of the tested compounds approach IC50 (Figure 7).
as §4
Mitochondrial Membrane Potential. […] After the cells were rinsed three times and suspended in PBS, the JC-10 fluorescence was observed using flow cytometry (Guava easy Cyte, MERCK, Rahway, NJ, USA).

In the next series the test system is SH-SY5Y. As to the kind of experiment: MTT cytotoxicity, SH-SY5Y. The format is cell-based. The following applies: Homo sapiens, read-out: IC50 (µM) Cancer Cell Lines SH-SY5Y.
Description: as §1, §2, §3

Each structure is given as a SMILES string. Where two headings read alike, the source gives them in different places.

Broadly, the IC50 is the point on the concentration scale where inhibition reaches its midpoint. Turning to `Cc1cc(O)c(C(CCNC(=O)CCl)c2c(O)cc(C)oc2=O)c(=O)o1` [Compound 5a], the IC50 came to 65.8 ± 1.18 µM with Hep-2; 139 ± 11 µM with Chang Liver; 80.2 ± 4.05 µM with PA-1; 82.1 ± 3.56 µM with A549; 1.7 µM in the series on HuTu 80 (Homo sapiens, HuTu80, 48 h); 1.9 ± 0.2 µM with HuTu 80. Besides, the IC50 in the series on MCF-7 was 85.6 ± 3.12 µM; with M-HeLa, 56.2 ± 4.7 µM; in the series with SH-SY5Y, 75.8 ± 2.84 µM. For the same molecule, in the series with HuTu 80 cells [1], the “apoptosis-inducing effect (in words)” value is listed as “apoptotic effects increase at the early apoptosis stage”. In addition, the “times more effective / more cytotoxic than the reference drug sorafenib” value with HuTu 80 (HuTu 80) amounted to 1.7. Further, the “ROS production, CellROX Deep Red fluorescence intensity (in words)” value in the series with HuTu 80 cells [2] was “significant reliable increase”. For the same molecule, the “mitochondrial membrane potential (in words)” value in the series with HuTu 80 cells [3] was “decreased”.
